# Results from patent US10759799B2, “Indazole containing macrocycles and therapeutic uses thereof” (Samumed, LLC, priority 2018, dated 2020).
# How the values were obtained:
# [1] = molecular target: recombinant DYRK1A kinase (Homo sapiens (Human), UniProt Q13627); test: DYRK1A kinase assay (Ser/Thr 18 peptide Z-lyte, FRET); format: biochemical; settings: 30 μM ATP, one hour at room temperature, read-out: EC50 (μM) (IC50 per method)
# Description: Representative compounds were screened using the assay procedure for DYRK1A kinase activity as described below.
# (§1) The DYRK1A kinase assay was run using the Ser/Thr 18 peptide Z-lyte assay kit according to manufacturer's instructions (Life Technologies—a Division of Thermo-Fisher). This is a non-radioactive assay using fluorescence resonance energy transfer (FRET) between coumarin and fluorescein to detect kinase activity which is represented as a ratio of coumarin emission/fluorescein emission.
# Briefly, recombinant DYRK1A kinase, ATP and Ser/Thr peptide 18 were prepared in 1× Kinase buffer to final concentrations of 0.19 μg/mL, 30 μM, and 4 μM respectively. The mixture was allowed to incubate with the representative compounds for one hour at room temperature. All reactions were performed in duplicate. Unphosphorylated (“0% Control”) and phosphorylated (“100% control”) forms of Ser/Thr 18 served as control reactions. Additionally, an 11-point dose-response curve of Staurosporine (1 uM top) was run to serve as a positive compound control.
# After incubation, Development Reagent A was diluted in Development Buffer then added to the reaction and allowed to further incubate for one hour at room temperature. The plate was read at Ex 400 Em 455 to detect the coumarin signal and Ex 400 Em 520 to measure the signal (EnVision Multilabel Plate Reader, PerkinElmer).
# The Emission ratio (Em) was calculated as a ratio of the coumarin (C) emission signal (at 445 nm)/Fluorescein (F) emission signal (at 520 nm). The percent phosphorylation was then calculated using the following formula: [1−((Em ratio×F100%)−C100%)/((C0%−C100%)+(Em ratio×(F100%−F0%)))].
# recombinant GSK3β kinase = recombinant GSK3β kinase (Homo sapiens (Human), UniProt P49841); test: GSK3β kinase assay (Ser/Thr 09 peptide Z-lyte, FRET); format: biochemical; settings: 46 μM ATP, one hour at room temperature, read-out: EC50 (μM) (IC50 per method)
# Description: Representative compounds were screened using the assay procedure for GSK3β kinase activity as described below.
# as §1, with “GSK3β” for “DYRK1A”, “is” for “was”, “09” for “18”, “as” for “as a”
# Briefly, recombinant GSK3β kinase, ATP and Ser/Thr peptide 09 are prepared in 1× Kinase buffer to final concentrations of 0.04 μg/mL, 46 μM, and 4 μM respectively. The mixture is allowed to incubate with the representative compounds for one hour at room temperature. All reactions were performed in duplicate. Unphosphorylated (“0% Control”) and phosphorylated (“100% control”) forms of […] serve as control reactions.
# After incubation, diluted Development Buffer is added to the reaction and allowed to further incubate for one hour at room temperature. The plate is read at Ex 400 Em 455 to detect the coumarin signal and Ex 400 Em 520 to measure the signal (EnVision Multilabel Plate Reader, PerkinElmer).
# The Emission ratio (Em) is calculated as a ratio of the coumarin (C) emission signal (at 445 nm)/Fluorescein (F) emission signal (at 520 nm). The percent phosphorylation is then calculated using the following formula: [1−((Em ratio×F100%)−C100%)/((C0%−C100%)+(Em ratio×(F100%−F0%)))].
# Dose-response curves are generated and inhibitory concentration (IC50) values are calculated using non-linear regression curve fit in the Dotmatics' Studies Software (Bishops Stortford, UK).
# [2] = tested on: primary human mesenchymal stem cells (hMSCs); test: Chondrogenesis induction in hMSCs (nodule count, relative to TGF-β3); format: cell-based; settings: 6 days; for Conc (nM) of 50% TGF-β3 activity / Max. Activity as % TGF-β3 activity: TGF-β3 10 ng/mL positive control; for Conc (nM) of Max. activity: chondrogenic nodules
# Description: Representative compounds were screened using primary human mesenchymal stem cells (hMSCs) to determine their ability to induce chondrogenesis (process by which cartilage is developed).
# Human Mesenchymal Stem Cell Culture: Primary human mesenchymal stem cells (hMSCs) were purchased from Lonza (Walkersville, Md.) and expanded in Mesenchymal Stem Cell Growth Media (Lonza). Cells between passage 3 and 6 were used for the experiments.
# Number of nodules in each well was normalized to the average of 3 DMSO treated wells on the same plate using Excel (Microsoft Inc.). The normalized averages (fold change over DMSO) of 3 replicate wells for each compound concentration were calculated. Due to solubility limitations of some of the compounds, curve fitting was incomplete leading to inaccurate EC50 determinations.
# Using TGF-β3 as a positive control, the concentration of representative compounds required to induce equivalent levels of chondrogenesis is reported. In addition, the maximum activity of each compound and the respective dose that each compound reached maximum chondrogenesis activity is reported.
# [3] = from NCc1cncc(-c2ccc3[nH]nc(C(=O)Nc4cncc(-c5cccc(CCC(=O)O)c5)c4)c3c2)c1; amide bond; 20-membered ring; HATU/DIEA/DMAP; DMF; 20.0 mM; 37.0 °C
# recombinant GSK3β kinase, sequence (P49841 whole entry): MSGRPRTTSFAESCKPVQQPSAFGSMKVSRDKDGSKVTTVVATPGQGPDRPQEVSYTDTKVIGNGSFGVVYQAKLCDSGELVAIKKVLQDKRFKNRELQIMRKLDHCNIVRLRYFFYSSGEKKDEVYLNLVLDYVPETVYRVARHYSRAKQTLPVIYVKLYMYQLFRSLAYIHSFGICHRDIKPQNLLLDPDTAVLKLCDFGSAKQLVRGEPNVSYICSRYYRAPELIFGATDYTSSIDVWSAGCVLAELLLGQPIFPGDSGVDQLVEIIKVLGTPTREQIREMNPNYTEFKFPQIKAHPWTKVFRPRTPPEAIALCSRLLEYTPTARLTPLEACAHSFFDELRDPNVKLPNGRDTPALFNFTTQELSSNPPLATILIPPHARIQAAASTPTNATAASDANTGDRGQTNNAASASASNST
Compound,IC50 [1],IC50 (recombinant GSK3β kinase),Conc (nM) of 50% TGF-β3 activity [2],Max. Activity as % TGF-β3 activity [2],Conc (nM) of Max. activity [2],"ring closure, isolated yield [3]"
O=C1CCc2cccc(c2)-c2cccc3[nH]c(nc23)-c2n[nH]c3ccc(cc23)-c2cncc(c2)N1 [Compound 1],0.266 µM,0.007 µM,200 nM,497%,5000 nM,–
"O=C1CCc2cccc(c2)-c2cncc(c2)NC(=O)c2n[nH]c3ccc(cc23)-c2cncc(c2)CN1 [Compound 97, 2^1H-4,10-diaza-2(5,3)-indazola-1,5(3,5)-dipyridina-6(1,3)-benzenacycloundecaphane-3,9-dione]",0.009 µM,0.01 µM,–,–,–,20.8%
"Cn1ncc2c1CNCc1cccc(c1)-c1cccc3[nH]c(nc13)-c1n[nH]c3ccc-2cc13 [Compound 15, (Z)-Methyl-1^1H,2^1H,3^1H-6-aza-2(5,3),3 (2,4)-diindazola-1 (4,5)-pyrazola-4(1,3)-benzenacycloheptaphane]",0.111 µM,0.01 µM,–,–,–,–
"c1cc2cc(c1)-c1cncc3[nH]c(nc13)-c1n[nH]c3ccc(cc13)-c1cncc(c1)CNC2 [Compound 8, (Z)-2^3H,3H-6-Aza-2(7,2)-imidazo[4,5-c]pyridina-3(3,5)-indazola-4(3,5)-pyridina-1(1,3)-benzenacycloheptaphane]",0.003 µM,0.001 µM,200 nM,558%,1700 nM,–
"CN1Cc2cncc(c2)-c2ccc3[nH]nc(c3c2)-c2nc3c(cccc3[nH]2)-c2cccc(c2)C1 [Compound 22, (Z)-6-Methyl-2^1H,3^1H-6-aza-2(5,3),3(2,4)-diindazola-1(3,5)-pyridina-4(1,3)-benzenacycloheptaphane]",0.068 µM,0.011 µM,50 nM,440%,600 nM,–
"O=C1CCc2cccc(c2)-c2cccc3[nH]c(nc23)-c2n[nH]c3ccc(nc23)-c2cncc(c2)N1 [Compound 7, (Z)-2^1H,3^1H-8-Aza-2(5,3)-pyrazolo[4,3-b]pyridina-3 (2,4)-benzo[d]imidazola-1(3,5)-pyridina-4(1,3)-benzenacyclooctaphan-7-one]",> 10 µM,> 10 µM,–,–,–,–
"O=C1NC2CCC(CC2)NCc2cncc(c2)-c2ccc3[nH]nc(c3c2)-c2nc3c1cccc3[nH]2 [Compound 64, (6^1s,6^4s,Z)-1^1H,2^1H-5,7-diaza-1 (2,4),2(3,5)-dibenzo[d]imidazola-3(3,5)-pyridina-6(1,4)-cyclohexanacyclooctaphan-8-one]",0.448 µM,0.088 µM,–,–,–,–
"O=C1CCc2cccc(c2)-c2cccc3[nH]c(nc23)-c2n[nH]c3cnc(cc23)-c2cncc(c2)N1 [Compound 6, (Z)-2^1H,3^1H-8-Aza-2(5,3)-pyrazolo[3,4-c]pyridina-3(2,4)-benzo[d]imidazola-1(3,5)-pyridina-4(1,3)-benzenacyclooctaphan-7-one]",0.096 µM,0.004 µM,–,–,–,–
"O=C1CCc2cccc(c2)-c2nccc3[nH]c(nc23)-c2n[nH]c3ccc(cc23)-c2cncc(c2)N1 [Compound 2, (Z)-2^1H,3^1H-5-Aza-2(4,2)-imidazo[4,5-c]pyridina-3 (3,5)-indazola-4(3,5)-pyridina-1(1,3)-benzenacyclooctaphan-6-one]",0.006 µM,0.001 µM,–,–,–,–
"CN1CCCn2cc(nn2)-c2cncc3[nH]c(nc23)-c2n[nH]c3ccc(cc23)-c2cncc(c2)C1 [Compound 45, (1^4Z,2^1Z)-6-Methyl-1 ^1H,2^3H,3^1H-6-aza-2(7,2)-imidazo[4,5-c]pyridina-3(3,5)-indazola-4(3,5)-pyridina-1(4,1)-triazolacyclononaphane]",0.004 µM,0.001 µM,–,–,–,–
"O=C1COc2cccc(c2)-c2cncc3[nH]c(nc23)-c2n[nH]c3ccc(cc23)-c2cncc(c2)N1 [Compound 38, (Z)-2^3H,3^1H-8-Oxa-5-aza-2(7,2)-imidazo[4,5-c]pyridina-3(3,5)-indazola-4(3,5)-pyridina-1(1,3)-benzenacyclooctaphan-6-one]",0.005 µM,0.001 µM,100 nM,185%,100 nM,–
"O=C1CCc2cccc(c2)-c2cccc3[nH]c(nc23)-c2n[nH]c3ncc(cc23)-c2cncc(c2)N1 [Compound 5, (Z)-2^1H,3^1H-8-Aza-2(5,3)-pyrazolo[3,4-b]pyridina-3(2,4)-benzo[d]imidazola-1(3,5)-pyridina-4(1,3)-benzenacyclooctaphan-7-one]",0.709 µM,0.048 µM,–,–,–,–
"O=C1CCc2cccc(c2)-c2cncc3[nH]c(nc23)-c2n[nH]c3ccc(cc23)-c2cncc(c2)N1 [Compound 3, (Z)-2^3H,3^1H-5-Aza-2(7,2)-imidazo[4,5-c]pyridina-3 (3,5)-indazola-4(3,5)-pyridina-1(1,3)-benzenacyclooctaphan-6-one]",0.01 µM,0.001 µM,50 nM,225%,100 nM,–
"c1cc2cc(c1)-c1cccc3[nH]c(nc13)-c1n[nH]c3ccc(cc13)-c1cncc(c1)CNC2 [Compound 10, (Z)-2^1H,3^1H-6-Aza-2(5,3),3(2,4)-diindazola-1(3,5)-pyridina-4(1,3)-benzenacycloheptaphane]",0.018 µM,0.004 µM,50 nM,607%,600 nM,–
CN1Cc2cccc(c2)-c2cccc3[nH]c(nc23)-c2n[nH]c3ccc(cc23)-c2cnn(C)c2C1 [Compound 29],0.412 µM,0.015 µM,–,–,–,–
c1cc2cc(c1)-c1cccc3[nH]c(nc13)-c1n[nH]c3ccc(cc13)-c1cncc(c1)OCCC2 [Compound 57],> 10 µM,1.87 µM,–,–,–,–
"CN1CCCCN(C)c2nccc3[nH]c(nc23)-c2n[nH]c3ccc(cc23)-c2cncc(c2)C1 [Compound 51, (Z)-5,10-Dimethyl-1H,2^1H-5,10-diaza-1(2,4)-imidazo[4,5-c]pyridina-2(3,5)-indazola-3(3,5)-pyridinacyclodecaphane]",0.002 µM,0.002 µM,5000 nM,231%,5000 nM,–
